# Literature values as cited in patent publication US20260216122A1, “PHARMACEUTICAL COMPOSITION COMPRISING ENAVOGLIFLOZIN AND METFORMIN” (DAEWOONG PHARMACEUTICAL CO., LTD., priority 2022, published 2026).
# Like-named read-outs stand apart in the source and are kept apart here.
"Tmax (metformin, administered after a meal)","Tmax (metformin, administered before a meal)",Tmax (enavogliflozin),SMILES
approximately 6 hours,approximately 4 hours,,CN(C)C(=N)N=C(N)N [Metformin]
,,approximately 1 hour,"OC[C@H]1O[C@@H](c2cc(Cc3ccc(C4CC4)cc3)c(Cl)c3c2CCO3)[C@H](O)[C@@H](O)[C@@H]1O [enavogliflozin, (2S,3R,4R,5S,6R)-2-(7-chloro-6-(4-cyclopropylbenzyl)-2,3-dihydrobenzofuran-4-yl)-6-(hydroxymethyl)tetrahydro-2H-pyran-3,4,5-triol]"
